Measurements as given in BigSolDB 2.1.

Which results are given for O=c1cc(-c2ccc(O)cc2)oc2cc(O)cc(O)c12?
solubility (mole fraction) (in acetone, 288.2 K): 0.000338; solubility (mole fraction) (in acetone, 298.2 K): 0.000367; solubility (mole fraction) (in acetone, 308.2 K): 0.000451; solubility (mole fraction) (in acetone, 318.2 K): 0.00054; solubility (mole fraction) (in acetone, 328.2 K): 0.000654; solubility (mole fraction) (in ethanol, 288.2 K): 0.000244; solubility (mole fraction) (in ethanol, 298.2 K): 0.000295; solubility (mole fraction) (in ethanol, 308.2 K): 0.000346; solubility (mole fraction) (in ethanol, 318.2 K): 0.000397; solubility (mole fraction) (in ethanol, 328.2 K): 0.000449; solubility (mole fraction) (in ethyl acetate, 288.2 K): 0.000172; solubility (mole fraction) (in ethyl acetate, 298.2 K): 0.000239; solubility (mole fraction) (in ethyl acetate, 308.2 K): 0.000323; solubility (mole fraction) (in ethyl acetate, 318.2 K): 0.000442; solubility (mole fraction) (in ethyl acetate, 328.2 K): 0.000548; solubility (mole fraction) (in methanol, 288.2 K): 0.000118; solubility (mole fraction) (in methanol, 298.2 K): 0.000148; solubility (mole fraction) (in methanol, 308.2 K): 0.000179; solubility (mole fraction) (in methanol, 318.2 K): 0.000219; solubility (mole fraction) (in methanol, 328.2 K): 0.000254; solubility (mole fraction) (in n-butanol, 288.2 K): 0.000478; solubility (mole fraction) (in n-butanol, 298.2 K): 0.000568; solubility (mole fraction) (in n-butanol, 308.2 K): 0.0007; solubility (mole fraction) (in n-butanol, 318.2 K): 0.000822; solubility (mole fraction) (in n-butanol, 328.2 K): 0.000934; solubility (mole fraction) (in n-propanol, 288.2 K): 0.000343; solubility (mole fraction) (in n-propanol, 298.2 K): 0.000401; solubility (mole fraction) (in n-propanol, 308.2 K): 0.000473; solubility (mole fraction) (in n-propanol, 318.2 K): 0.000564; solubility (mole fraction) (in n-propanol, 328.2 K): 0.000677; solubility (mole fraction) (in water, 288.2 K): 7e-07; solubility (mole fraction) (in water, 298.2 K): 1.03e-06; solubility (mole fraction) (in water, 308.2 K): 1.57e-06; solubility (mole fraction) (in water, 318.2 K): 2.11e-06; solubility (mole fraction) (in water, 328.2 K): 2.81e-06
